Assay results taken from patent US7179814B2, “Agents for controlling plant pests” (priority 1998, dated 2007).

Key:
Type in all cases: in vivo
[1] = test system: caterpillars of the diamondback moth (Plutella xylostella); experiment: Plutella test (cabbage leaf dip)
Method: (§1) To produce a suitable preparation of active compound, 1 part by weight of an active compound or an active compound combination is mixed with the stated amounts of solvent and emulsifier, and the concentrate is diluted with water to the desired concentration.
Cabbage leaves (Brassica oleracea) are treated by being dipped into the preparation of active compound of the desired concentration and are populated with caterpillars of the diamondback moth (Plutella xylostella) while the leaves are still moist.
After the desired period of time, the kill in % is determined 100% means that all caterpillars have been killed; 0% means that none of the caterpillars have been killed.

Puccinia recondita = experiment: Puccinia test (wheat)/protective; details: 62.5 g/ha, 10 days after inoculation
Method: as §1, with “of” for “of an”, “or” for “or an”, “desired concentration, or a commercial formulation of active compound or active compound combination is diluted with water to the desired” for “desired”
(§2) To test for protective activity, young plants are sprayed with the active compound preparation at the stated application rate. After the spray coating has dried on, the plants are sprayed with a conidia suspension of Puccinia recondita. The plants remain in an incubation cabin at 20° C. and 100% relative atmospheric humidity for 48 hours.
The plants are then placed in a greenhouse at a temperature of approximately 20° C. and a relative atmospheric humidity of 80% to promote the development of rust pustules.
Evaluation is carried out 10 days after the inoculation. 0% means an efficacy which corresponds to that of the control, whereas an efficacy of 100% means that no infection is observed.

[2] = test system: green rice leaf hopper (Nephotettix cincticeps); experiment: Nephotettix test (rice seedling dip)
Method: as §1
Rice seedlings (Oryza sativa) are treated by being dipped into the active compound preparation of the desired concentration and are populated with the green rice leaf hopper (Nephotettix cincticeps) while the leaves are still moist.
After the desired period of time, the kill in % is determined. 100% means that all the leaf hoppers have been killed; 0% means that none of the leaf hoppers have been killed.

Pyrenophora teres = Pyrenophora teres test (barley)/protective; details: single active compound
Method: as §1, with “of” for “of an”, “or” for “or an”, “desired concentration, or a commercial formulation of active compound or active compound combination is diluted with water to the desired” for “desired”
as §2, with “Pyrenophora teres.” for “Puccinia recondita.”
The plants are then placed in a greenhouse at a temperature of approximately 20° C. and a relative atmospheric humidity of approximately 80%.
Evaluation is carried out 7 days after the inoculation. 0% means an efficacy which corresponds to that of the control, whereas an efficacy of 100% means that no infection is observed.

[3] = test system: larvae of the mustard beetle (Phaedon cochleariae); experiment: Phaedon larvae test (cabbage leaf dip)
Method: as §1
Cabbage leaves (Brassica oleracea) are treated by being dipped into the preparation of active compound of the desired concentration and are populated with larvae of the mustard beetle (Phaedon cochleariae) while the leaves are still moist.
After the desired period of time, the kill in % is determined. 100% means that all beetle larvae have been killed; 0% means that none of the beetle larvae have been killed.

`N#C/N=C1/SCCN1Cc1ccc(Cl)nc1` [formula (I)] gave a Kill in % ([1]; concentration 0.0008 %) of 0%, a Kill in % ([1]; concentration 0.004 %) of 60% and an Efficacy in % (Puccinia recondita) of 0%. The Kill in % ([2]; concentration 0.000032 %) was 0%, the Kill in % ([2]; concentration 0.00016 %) was 35% and the “Efficacy in % calculated/found” value (Pyrenophora teres; 18.75 g/ha) was 20%. For the same compound, the “Efficacy in % calculated/found” value (Pyrenophora teres; 62.5 g/ha, 7 days after inoculation) was 0%, the Kill in % ([3]; concentration 0.00016 %) was 5% and the Kill in % ([3]; concentration 0.0008 %) was 40%.
